Assay [1] addresses T1, BTK (Homo sapiens, UniProt Q06187).
T1 construct: purchased Signalchem B10-10H
Kind of assay: Inhibitory activity against BTK, ADP-Glo Kinase system (Promega). Type of assay: biochemical. The protocol: (§1) Inhibitory activities against BTK and ITK were measured for the compounds prepared in the above Examples as follows.
(§2) The inhibitory activities against BTK and ITK were evaluated using 'ADP-Glo™ Kinase system' (Promega Corporation). In the case of this evaluation method, activation was measured by quantifying the amount of ADP produced during the kinase reaction, which was utilized to measure the inhibitory activities against BTK and ITK.
(§3) Specifically, the inhibitory activities against BTK and ITK were measured using BTK kinase (Signalchem, B10-10H), ITK kinase (Signalchem, I13-11G-10), and ADP-Glo kinase assay kit (Promega, V9102). Recombinant purified human BTK and ITK were diluted with 1 x kinase reaction buffer (40 mM Tris-Cl, pH 7.5, 20 mM MgCl2, 0.1 mg/mL BSA, 2 mM MnCl2 and 50 uM DTT) and added to a 96 well plate (ITK: final concentration of 4 ng per reaction/BTK: final concentration of 10 ng per reaction). The compounds prepared in the previous Examples were treated so as to be finally a 1% DMSO aqueous solution, and a substrate cocktail containing ATP (1mM or Km ATP (BTK: 10 uM /ITK: 25uM)) and 0.2 ug/ul of Poly (Glu4,Tyr1) peptide (BTK and ITK final concentration) in the total 25 uL reactants was added to a 96-well plate to initiate enzymatic reaction. After incubation (30°C) for 1 hour, equivalent volume (25 uL per reaction) of ADP Glo was added, and incubated (30°C) for 40 minutes at room temperature. Then, a kinase detection reagent (45 uL per reaction) was added, and incubated (30°C) for 30 minutes at room temperature. The kinase activity was measured by chemiluminescence according to the instructions of ADP Glo kinase assay kit, and the inhibitory activity of the compounds according to the present disclosure was calculated. For the analysis of the results of each compound, Microsoft Excel was used, and IC50 values were calculated by GraphPad Prism software.
(In general: ADP-Glo first removes unused ATP, then detects ADP through luciferase.)

The target in assay [2] is T2, ITK (Homo sapiens, UniProt Q08881).
T2 construct: purchased Signalchem I13-11G-10
T2 sequence (Q08881 1-620): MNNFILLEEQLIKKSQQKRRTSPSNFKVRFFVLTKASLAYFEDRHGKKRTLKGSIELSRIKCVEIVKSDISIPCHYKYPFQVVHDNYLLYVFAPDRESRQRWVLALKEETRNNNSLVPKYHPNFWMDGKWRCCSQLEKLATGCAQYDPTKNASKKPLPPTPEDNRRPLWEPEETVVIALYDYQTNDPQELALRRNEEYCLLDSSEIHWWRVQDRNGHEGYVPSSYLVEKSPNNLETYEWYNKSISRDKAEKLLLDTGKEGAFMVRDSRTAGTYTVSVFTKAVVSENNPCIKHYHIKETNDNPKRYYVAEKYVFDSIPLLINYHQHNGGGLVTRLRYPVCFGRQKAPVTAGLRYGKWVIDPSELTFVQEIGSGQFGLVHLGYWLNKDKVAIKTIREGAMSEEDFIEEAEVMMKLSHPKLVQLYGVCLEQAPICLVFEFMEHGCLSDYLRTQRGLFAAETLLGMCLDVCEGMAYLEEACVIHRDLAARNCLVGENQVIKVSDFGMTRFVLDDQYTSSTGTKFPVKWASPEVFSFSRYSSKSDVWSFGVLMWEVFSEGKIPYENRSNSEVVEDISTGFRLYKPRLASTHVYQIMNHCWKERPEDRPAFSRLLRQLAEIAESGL
Kind of assay: Inhibitory activity against ITK, ADP-Glo Kinase system (Promega). Type of assay: biochemical. The protocol:
as §1, §2, §3

[3] abbreviates: 1mM ATP, read-out: BTK IC50(nM) 1mM ATP.
Where [4] appears, read: 1mM ATP, read-out: ITK IC50(nM) 1mM ATP.
[5] abbreviates: Km ATP (BTK: 10 uM), read-out: BTK IC50(nM) Km ATP.
The mark [6] stands for this setting: Km ATP (ITK: 25uM), read-out: ITK IC50(nM) Km ATP.

Drawing on EP4707277A1, “NOVEL HETEROCYCLIC AMINE DERIVATIVES AND PHARMACEUTICAL COMPOSITION COMPRISING SAME” (Daewoong Pharmaceutical Co., Ltd., priority 2023, dated 2024), this text covers IC50 for 20 compounds.

For orientation: IC50 means the midpoint of a concentration-inhibition curve.

Read-outs that look alike come from different tables or passages of the source.

T1 sequence (Q06187 whole entry): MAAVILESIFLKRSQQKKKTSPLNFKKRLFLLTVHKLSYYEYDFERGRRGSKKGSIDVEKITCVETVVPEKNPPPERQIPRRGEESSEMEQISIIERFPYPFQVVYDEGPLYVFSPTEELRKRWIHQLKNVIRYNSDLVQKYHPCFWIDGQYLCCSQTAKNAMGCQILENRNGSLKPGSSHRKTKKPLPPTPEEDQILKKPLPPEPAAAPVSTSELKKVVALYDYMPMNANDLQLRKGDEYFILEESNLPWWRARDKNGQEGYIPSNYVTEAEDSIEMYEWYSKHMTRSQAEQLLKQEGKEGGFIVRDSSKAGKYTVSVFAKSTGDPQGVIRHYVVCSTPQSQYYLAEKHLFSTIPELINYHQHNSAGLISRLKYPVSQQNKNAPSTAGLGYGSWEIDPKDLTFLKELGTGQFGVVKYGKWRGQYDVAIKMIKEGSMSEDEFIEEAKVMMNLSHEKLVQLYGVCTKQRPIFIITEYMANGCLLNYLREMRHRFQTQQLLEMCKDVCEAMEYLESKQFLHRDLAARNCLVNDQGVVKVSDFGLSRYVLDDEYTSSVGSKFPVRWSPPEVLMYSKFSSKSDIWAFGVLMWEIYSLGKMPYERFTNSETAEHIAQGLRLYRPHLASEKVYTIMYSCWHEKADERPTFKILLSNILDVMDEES

For the compound `Cc1cnc(Nc2cc3c(ccn3CC(C)C)c(O[C@@H]3CN(C(=O)CCl)C[C@@H]3F)n2)s1` [Example 229, 2-chloro-1-((3S,4R)-3-fluoro-4-((1-isobutyl-6-((5-methylthiazol-2-yl)amino)-1H-pyrrolo[3,2-c]pyridin-4-yl)oxy)pyrrolidin-1-yl)ethan-1-one], the IC50 in assay [1] (setting [3]) is 20 to 100 nM; in assay [2] (setting [4]) it was ≤ 20 nM.

Take `C=CC(=O)N1CC=C(c2nc(Nc3ncc(C)s3)cc3c2ccn3CC2CCC(F)(F)CC2)CC1` [Example 11, 1-(4-(1-((4,4-difluorocyclohexyl)methyl)-6-((5-methylthiazol-2-yl)amino)-1H-pyrrolo[3,2-c]pyridin-4-yl)-3,6-dihydropyridin-1(2H)-yl)prop-2-en-1-one]: the 50% inhibitory concentration (IC50) in assay [1] (setting [5]) and in assay [2] (setting [6]) was ≤ 20 nM in each case.

For `C=CC(=O)N1CC=C(c2nc(Nc3nnc(C)s3)cc3c2ccn3C(C)C)CC1` [Example 41, 1-(4-(1-isopropyl-6-((5-methyl-1,3,4-thiadiazol-2-yl)amino)-1H-pyrrolo[3,2-c]pyridin-4-yl)-3,6-dihydropyridin-1(2H)-yl)prop-2-en-1-one], the IC50 in assay [1] (setting [5]) is 20 to 100 nM; in assay [2] (setting [6]), > 500 nM.

`C=CC(=O)Nc1ccc(F)c(-c2nc(Nc3ncc(C)s3)cc3c2ccn3CC2CC2)c1` [Example 61, N-(3-(1-(cyclopropylmethyl)-6-((5-methylthiazol-2-yl)amino)-1H-pyrrolo[3,2-c]pyridin-4-yl)-4-fluorophenyl)acrylamide]: the half-maximal inhibitory concentration (IC50) in assay [1] (setting [5]) and in assay [2] (setting [6]) was ≤ 20 nM each time.

As for `C=CC(=O)N1CC[C@H](Oc2nc(Nc3ncc(C)s3)cc3c2ccn3CC)C1` [Example 125, (S)-1-(3-((1-ethyl-6-((5-methylthiazol-2-yl)amino)-1H-pyrrolo[3,2-c]pyridin-4-yl)oxy)pyrrolidin-1-yl)prop-2-en-1-one], the IC50 in assay [1] (setting [5]) and in assay [2] (setting [6]) was ≤ 20 nM throughout.

Turning to `C=CC(=O)N1C[C@@H](Oc2nc(Nc3ncc(C)s3)cc3c2ccn3CC2CC2)C[C@@H]1C` [Example 180, 1-((2S,4S)-4-((1-(cyclopropylmethyl)-6-((5-methylthiazol-2-yl)amino)-1H-pyrrolo[3,2-c]pyridin-4-yl)oxy)-2-methylpyrrolidin-1-yl)prop-2-en-1-one], the 50% inhibitory concentration (IC50) in assay [1] (setting [3]) and in assay [2] (setting [4]) was ≤ 20 nM throughout.

In the case of `C=CC(=O)N1C[C@H](F)[C@H](Oc2nc(Nc3ncc(C)s3)cc3c2ccn3CC)C1` [Example 152, 1-((3R,4S)-3-((1-ethyl-6-((5-methylthiazol-2-yl)amino)-1H-pyrrolo[3,2-c]pyridin-4-yl)oxy)-4-fluoropyrrolidin-1-yl)prop-2-en-1-one], the IC50 in assay [1] (setting [3]) and in assay [2] (setting [4]) was ≤ 20 nM each time.

Turning to `C=CC(=O)N1C[C@H](F)[C@H](Oc2nc(Nc3ncc(C#N)s3)cc3c2ccn3CC(C)C)C1` [Example 181, 2-((4-(((3R,4S)-1-acryloyl-4-fluoropyrrolidin-3-yl)oxy)-1-isobutyl-1H-pyrrolo[3,2-c]pyridin-6-yl)amino)thiazole-5-carbonitrile], the IC50 in assay [1] (setting [3]) and in assay [2] (setting [4]) was ≤ 20 nM throughout.

Turning to `C=CC(=O)Nc1ccc(F)c(-c2nc(Nc3ncc(C)s3)cc3c2ccn3CC(C)C)c1` [Example 63, N-(4-fluoro-3-(1-isobutyl-6-((5-methylthiazol-2-yl)amino)-1H-pyrrolo[3,2-c]pyridin-4-yl)phenyl)acrylamide], the IC50 is 20 to 100 nM in assay [1] (setting [3]), ≤ 20 nM in assay [1] (setting [5]), 100 to 500 nM in assay [2] (setting [4]) and 20 to 100 nM in assay [2] (setting [6]).

With `C=CC(=O)N1CC=C(c2nc(Nc3ncc(C)s3)cc3c2ccn3C(F)F)CC1` [Example 21, 1-(4-(1-(difluoromethyl)-6-((5-methylthiazol-2-yl)amino)-1H-pyrrolo[3,2-c]pyridin-4-yl)-3,6-dihydropyridin-1(2H)-yl)prop-2-en-1-one], the IC50 in assay [1] (setting [5]) and in assay [2] (setting [6]) was ≤ 20 nM in each case.

Take `C=CC(=O)N1CCC=C(c2nc(Nc3ncc(C)s3)cc3c2ccn3C(C)(C)C#N)C1` [Example 23, 2-(4-(1-acryloyl-1,2,5,6-tetrahydropyridin-3-yl)-6-((5-methylthiazol-2-yl)amino)-1H-pyrrolo[3,2-c]pyridin-1-yl)-2-methylpropanenitrile]: the IC50 is 20 to 100 nM in assay [1] (setting [5]) and ≤ 20 nM in assay [2] (setting [6]).

`C=CC(=O)N1C[C@@H](F)[C@H](Oc2nc(Nc3ncc(C)s3)cc3c2ccn3CC2CC2)C1` [Example 108, 1-((3R,4R)-3-((1-(cyclopropylmethyl)-6-((5-methylthiazol-2-yl)amino)-1H-pyrrolo[3,2-c]pyridin-4-yl)oxy)-4-fluoropyrrolidin-1-yl)prop-2-en-1-one]: the IC50 in assay [1] (setting [3]) and in assay [2] (setting [4]) was ≤ 20 nM in each case.

For `C=CC(=O)N1CC=C(c2nc(Nc3ncc(C)s3)cc3c2ccn3CC2CCCCC2)CC1` [Example 9, 1-(4-(1-(cyclohexylmethyl)-6-((5-methylthiazol-2-yl)amino)-1H-pyrrolo[3,2-c]pyridin-4-yl)-3,6-dihydropyridin-1(2H)-yl)prop-2-en-1-one], the IC50 in assay [1] (setting [5]) and in assay [2] (setting [6]) was ≤ 20 nM each time.

In the case of `C=CC(=O)N1CCCCC12CC(Oc1nc(Nc3ncc(C)s3)cc3c1ccn3CC(C)C)C2` (stereo not drawn) [Example 203, 1-(2-((1-isobutyl-6-((5-methylthiazol-2-yl)amino)-1H-pyrrolo[3,2-c]pyridin-4-yl)oxy)-5-azaspiro[3.5]nonan-5-yl)prop-2-en-1-one], the IC50 in assay [1] (setting [3]) and in assay [2] (setting [4]) was > 500 nM each time.

Regarding `C=CC(=O)N1CCC[C@H](Oc2nc(Nc3ncc(C)s3)cc3c2ccn3C2CCCC2)C1` [Example 151, (S)-1-(3-((1-cyclopentyl-6-((5-methylthiazol-2-yl)amino)-1H-pyrrolo[3,2-c]pyridin-4-yl)oxy)piperidin-1-yl)prop-2-en-1-one], the IC50 is ≤ 20 nM in assay [1] (setting [3]) and 20 to 100 nM in assay [2] (setting [4]).

For `C=CC(=O)N1CC(C)(Oc2nc(Nc3ncc(C)s3)cc3c2ccn3CCC(C)C)C1` [Example 177, 1-(3-((1-isopentyl-6-((5-methylthiazol-2-yl)amino)-1H-pyrrolo[3,2-c]pyridin-4-yl)oxy)-3-methylazetidin-1-yl)prop-2-en-1-one], the IC50 in assay [1] (setting [3]) and in assay [2] (setting [4]) was ≤ 20 nM each time.

Regarding `C=CC(=O)N1CCC[C@H]1COc1nc(Nc2ncc(C)s2)cc2c1ccn2CC1CCCC1` [Example 220, (S)-1-(2-(((1-(cyclopentylmethyl)-6-((5-methylthiazol-2-yl)amino)-1H-pyrrolo[3,2-c]pyridin-4-yl)oxy)methyl)pyrrolidin-1-yl)prop-2-en-1-one], the values for the IC50 in assay [1] (setting [3]) and in assay [2] (setting [4]) were ≤ 20 nM and 20 to 100 nM, respectively.

For `C=CC(=O)N1CCC[C@H]1COc1nc(Nc2ncc(C)s2)cc2c1ccn2CC(C)CC` (stereo partly drawn) [Example 221, 1-((2S)-2-(((1-(2-methylbutyl)-6-((5-methylthiazol-2-yl)amino)-1H-pyrrolo[3,2-c]pyridin-4-yl)oxy)methyl)pyrrolidin-1-yl)prop-2-en-1-one], the values for the IC50 in assay [1] (setting [3]) and in assay [2] (setting [4]) were ≤ 20 nM and 20 to 100 nM, respectively.

As to `C=CC(=O)N1CC[C@H](Oc2nc(Nc3ncc(C)s3)cc3c2ccn3CC2CC2)C1` [Example 97, (S)-1-(3-((1-(cyclopropylmethyl)-6-((5-methylthiazol-2-yl)amino)-1H-pyrrolo[3,2-c]pyridin-4-yl)oxy)pyrrolidin-1-yl)prop-2-en-1-one], the IC50 in assay [1] (setting [3]) and in assay [2] (setting [4]) was ≤ 20 nM throughout.

As for `C=CC(=O)Nc1cc(-c2nc(Nc3ncc(C)s3)cc3c2ccn3CC(F)F)ccc1F` [Example 76, N-(5-(1-(2,2-difluoroethyl)-6-((5-methylthiazol-2-yl)amino)-1H-pyrrolo[3,2-c]pyridin-4-yl)-2-fluorophenyl)acrylamide], the IC50 in assay [1] (setting [5]) was ≤ 20 nM; in assay [2] (setting [6]) it was 20 to 100 nM.
